Data: publication doi:10.1101/2024.02.23.581731v1 (biorxiv, 2024)
Changes are numbered by the printed parent chain. Each block holds one compound with its values, some of them ahead of it.

Assays:
h5-HT3AR [1] = target: T1, h5-HT3AR (Homo sapiens, UniProt P46098); assay: FLIPR Blue membrane potential assay, activation; type: cell-based; details: relative to 1 µM VTX
T1 sequence (P46098 24-478): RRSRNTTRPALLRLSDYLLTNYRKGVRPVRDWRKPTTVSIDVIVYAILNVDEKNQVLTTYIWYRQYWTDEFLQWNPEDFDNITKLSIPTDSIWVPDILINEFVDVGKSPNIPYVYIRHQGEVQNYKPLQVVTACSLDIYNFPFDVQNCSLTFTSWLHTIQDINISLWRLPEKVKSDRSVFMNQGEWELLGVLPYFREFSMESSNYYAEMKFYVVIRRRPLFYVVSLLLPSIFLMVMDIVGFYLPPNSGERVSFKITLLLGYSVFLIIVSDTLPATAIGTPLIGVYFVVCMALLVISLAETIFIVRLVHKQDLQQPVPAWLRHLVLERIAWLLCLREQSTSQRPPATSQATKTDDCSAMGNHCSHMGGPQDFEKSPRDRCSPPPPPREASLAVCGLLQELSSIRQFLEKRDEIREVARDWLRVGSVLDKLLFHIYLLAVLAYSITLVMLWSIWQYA

h5-HT3AR [2] = target: T1, h5-HT3AR; assay: [3H]-GR65630 displacement, HEK-293 membranes; type: binding
h5-HT3AR [3] = target: T2, h5-HT3AR (Homo sapiens, UniProt P46098, V202I); assay: biochemical
T2 sequence (P46098 24-478 V202I): T1 sequence (P46098 24-478) with V179I

h5-HT3AR [4] = target: T1, h5-HT3AR; assay: biochemical
gp5-HT3AR = target: T3, gp5-HT3AR (Cavia porcellus, UniProt O70212); assay: FLIPR Blue membrane potential assay, inhibition of 5-HT response; type: cell-based
T3 sequence (O70212 20-490): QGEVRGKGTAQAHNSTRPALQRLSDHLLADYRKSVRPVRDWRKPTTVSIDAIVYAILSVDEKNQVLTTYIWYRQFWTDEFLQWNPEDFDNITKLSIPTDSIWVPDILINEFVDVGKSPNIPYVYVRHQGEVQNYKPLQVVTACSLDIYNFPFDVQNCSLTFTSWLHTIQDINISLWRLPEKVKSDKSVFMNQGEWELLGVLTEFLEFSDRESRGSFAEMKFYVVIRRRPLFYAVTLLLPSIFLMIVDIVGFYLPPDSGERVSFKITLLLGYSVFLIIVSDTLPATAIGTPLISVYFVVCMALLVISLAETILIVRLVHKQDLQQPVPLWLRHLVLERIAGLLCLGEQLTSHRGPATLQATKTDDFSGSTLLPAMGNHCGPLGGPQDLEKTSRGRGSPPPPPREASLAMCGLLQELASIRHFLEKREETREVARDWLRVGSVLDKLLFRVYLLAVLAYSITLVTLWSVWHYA

IC50 (gp5-HT3AR): 1260 nM
SMILES: CN1C2CCCC1CC(NC(=O)c1nn(C)c3ccccc13)C2 (stereo not shown) [granisetron]

IC50 (gp5-HT3AR): 9810 nM
SMILES: Cc1nccn1CC1CCc2c(c3ccccc3n2C)C1=O (stereo not shown) [ondansetron]

The remaining lines, values behind:

SMILES: Cc1ccc(Sc2ccccc2N2CCNCC2)cc1 [4j]
Activity (%) at 1 μM (h5-HT3AR [1]): 95 ± 12%

SMILES: COc1ccc(Sc2ccccc2N2CCNCC2)c(Cl)c1 [5n]
Activity (%) at 1 μM (h5-HT3AR [1]): 111 ± 14%

SMILES: Cc1ccc(Sc2ccc(C)cc2N2CCNCC2)c(C)c1 [6b]
Ki (h5-HT3AR [2]): 880 nM

SMILES: Cc1[nH]cnc1CCC(=O)c1cn(C)c2ccccc12 [[3H]-GR65630]
Kd (h5-HT3AR [3]): 0.62 ± 0.05 nM
Kd (h5-HT3AR [4]): 0.82 ± 0.06 nM
